Legend:
Experiment in all cases: relative viability (nuclei count vs DMSO), 5 days (fraction); higher = more cells survive
[1] = compound: CC(C)C[C@H](NC(=O)[C@H](Cc1ccccc1)NC(=O)c1cnccn1)B(O)O [Bortezomib] + CC(=O)Nc1cccc(-n2c(=O)n(C3CC3)c(=O)c3c(Nc4ccc(I)cc4F)n(C)c(=O)c(C)c32)c1 [Trametinib] (partner 0.02 µM)
Procedure, shortened: (§1)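 Cells from lung cancer lines were seeded into 1536-well plates and, one day later, dosed by pin tool. Treatments were either a single drug or a fixed dose of an anchor drug with five library-drug doses (not always all listed) in √10 steps. After 5 days, nuclei were stained in a one-step fixation (final 0.05% Triton X-100, 1% formaldehyde, 1 ug/ml Hoechst) and counted on 4× images, and relative viability is the treated-to-vehicle nuclei ratio, as the median of duplicate plates.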

[2] = compound: CC1=CC(=NN1)NC2=CC(=NC(=N2)/C=C/C3=CC=CC=C3)N4CCN(CC4)C + Cc1cc(Nc2cc(N3CCN(C)CC3)nc(Sc3ccc(NC(=O)C4CC4)cc3)n2)n[nH]1 [Tozasertib] (partner 0.1 µM)
Procedure, shortened: as §1

[3] = compound: COC1=CC(c2cc3ccccc3[nH]2)=N/C1=C\c1[nH]c(C)cc1C [Obatoclax] + COc1cccc2cc(-c3nc([C@H]4CC[C@H](C(=O)O)CC4)n4ncnc(N)c34)[nH]c12 [OSI-027] (partner 0.5 µM)
Procedure, shortened: as §1

[4] = compound: COC1=CC(c2cc3ccccc3[nH]2)=N/C1=C\c1[nH]c(C)cc1C [Obatoclax] + O=C(CCCCCCC(=O)Nc1ccccc1)NO [Vorinostat] (partner 1 µM)
Procedure, shortened: as §1

Cell Line | relative viability ([1]; first compound 0.0002 µM) | relative viability ([1]; first compound 0.000632 µM) | relative viability ([1]; first compound 0.002 µM) | relative viability ([1]; first compound 0.006325 µM) | relative viability ([1]; first compound 0.02 µM) | relative viability ([2]; first compound 0.08 µM) | relative viability ([2]; first compound 0.253 µM) | relative viability ([2]; first compound 0.8 µM) | relative viability ([2]; first compound 2.53 µM) | relative viability ([2]; first compound 8 µM) | relative viability ([3]; first compound 0.01 µM) | relative viability ([3]; first compound 0.03162 µM) | relative viability ([3]; first compound 0.1 µM) | relative viability ([3]; first compound 0.3162 µM) | relative viability ([3]; first compound 1 µM) | relative viability ([4]; first compound 0.01 µM) | relative viability ([4]; first compound 0.03162 µM) | relative viability ([4]; first compound 0.1 µM) | relative viability ([4]; first compound 0.3162 µM) | relative viability ([4]; first compound 1 µM)
NCI-H1355 | 0.432 | 0.468 | 0.457 | 0.216 | 0.118 | 0.536 | 0.502 | 0.511 | 0.173 | 0.129 | 0.391 | 0.386 | 0.462 | 0.422 | 0.399 | 0.623 | 0.625 | 0.627 | 0.601 | 0.623
NCI-H1650 | 0.627 | 0.572 | 0.128 | 0.132 | 0.129 | 0.384 | 0.384 | 0.373 | 0.187 | 0.169 | 0.677 | 0.552 | 0.644 | 0.386 | 0.225 | 0.494 | 0.661 | 0.61 | 0.417 | 0.301
SW 1573 | 0.55 | 0.612 | 0.291 | 0.074 | 0.0469 | 0.213 | 0.162 | 0.162 | 0.133 | 0.0849 | 0.612 | 0.559 | 0.662 | 0.219 | 0.115 | 0.791 | 1.04 | 0.792 | 0.429 | 0.169
NCI-H661 | 0.526 | 0.493 | 0.62 | 0.364 | 0.207 | 0.321 | 0.344 | 0.339 | 0.382 | 0.394 | 0.689 | 0.704 | 0.709 | 0.649 | 0.407 | 0.734 | 0.789 | 0.81 | 0.711 | 0.552
LU99A | 0.546 | 0.522 | 0.567 | 0.517 | 0.148 | 0.325 | 0.259 | 0.262 | 0.175 | 0.141 | 0.291 | 0.282 | 0.267 | 0.312 | 0.298 | 0.557 | 0.459 | – | 0.463 | 0.224
LCLC-97TM1 | 0.173 | 0.205 | 0.162 | 0.0973 | 0.063 | 0.235 | 0.132 | 0.23 | 0.145 | 0.126 | 0.606 | 0.553 | 0.693 | 0.347 | 0.52 | 0.633 | 0.792 | 0.77 | 0.589 | 0.494
LC-2-ad | 0.903 | 0.89 | 0.995 | 0.597 | 0.201 | 0.45 | 0.409 | 0.358 | 0.224 | 0.204 | 0.838 | 0.838 | 0.529 | 0.724 | 0.655 | 0.677 | 0.669 | 0.647 | 0.658 | 0.445
NCI-H1395 | 1.14 | 0.939 | 0.708 | 0.315 | 0.31 | 0.76 | 0.751 | 0.566 | 0.496 | 0.315 | 0.659 | 0.539 | 0.473 | 0.557 | 0.465 | 0.996 | 0.643 | 0.642 | 0.635 | 0.596
NCI-H2228 | 0.469 | 0.505 | 0.32 | 0.123 | 0.0916 | 0.193 | 0.214 | 0.158 | 0.086 | 0.0648 | 0.653 | 0.507 | 0.524 | 0.318 | 0.152 | 0.564 | 0.83 | 0.859 | 0.654 | 0.164
NCI-H1648 | 0.465 | 0.594 | 0.371 | 0.263 | 0.389 | 0.42 | 0.543 | 0.643 | 0.46 | 0.215 | 0.253 | 0.226 | 0.413 | 0.269 | 0.232 | 0.557 | 0.479 | 0.739 | 0.357 | 0.822
HOP-62 | 0.37 | 0.401 | 0.378 | 0.173 | 0.0647 | 0.354 | 0.366 | 0.377 | 0.261 | 0.18 | 0.858 | 0.848 | 0.754 | 0.819 | 0.583 | 0.573 | 0.575 | 0.639 | 0.741 | 0.403
NCI-H2347 | 0.263 | 0.283 | 0.193 | 0.243 | 0.232 | 0.501 | 0.565 | 0.518 | 0.461 | 0.257 | 0.461 | 0.408 | – | 0.467 | 0.412 | 0.633 | 0.71 | 0.514 | 0.54 | 0.465
NCI-H2087 | 0.201 | 0.187 | 0.149 | 0.0967 | 0.0704 | 0.229 | 0.238 | 0.195 | 0.162 | 0.11 | 0.768 | 0.525 | 0.529 | 0.333 | 0.159 | 0.61 | 0.81 | 0.931 | 0.671 | 0.723
EPLC-272H | 0.324 | 0.279 | 0.233 | 0.073 | 0.0585 | 0.34 | 0.203 | 0.273 | 0.113 | 0.122 | 0.277 | 0.279 | 0.333 | 0.247 | 0.203 | 0.567 | 0.561 | 0.399 | 0.175 | 0.176

Reference: the supplement of paper PMC10307832
